# Columns and labels:
# medaka Esr1 (mEsr1) [1] = biological target: T1, medaka Esr1 (mEsr1) (Oryzias latipes, UniProt P50241); test: cell-based; parameters: species or system Japanese medaka (Oryzias latipes)
# T1 sequence (P50241 1-620): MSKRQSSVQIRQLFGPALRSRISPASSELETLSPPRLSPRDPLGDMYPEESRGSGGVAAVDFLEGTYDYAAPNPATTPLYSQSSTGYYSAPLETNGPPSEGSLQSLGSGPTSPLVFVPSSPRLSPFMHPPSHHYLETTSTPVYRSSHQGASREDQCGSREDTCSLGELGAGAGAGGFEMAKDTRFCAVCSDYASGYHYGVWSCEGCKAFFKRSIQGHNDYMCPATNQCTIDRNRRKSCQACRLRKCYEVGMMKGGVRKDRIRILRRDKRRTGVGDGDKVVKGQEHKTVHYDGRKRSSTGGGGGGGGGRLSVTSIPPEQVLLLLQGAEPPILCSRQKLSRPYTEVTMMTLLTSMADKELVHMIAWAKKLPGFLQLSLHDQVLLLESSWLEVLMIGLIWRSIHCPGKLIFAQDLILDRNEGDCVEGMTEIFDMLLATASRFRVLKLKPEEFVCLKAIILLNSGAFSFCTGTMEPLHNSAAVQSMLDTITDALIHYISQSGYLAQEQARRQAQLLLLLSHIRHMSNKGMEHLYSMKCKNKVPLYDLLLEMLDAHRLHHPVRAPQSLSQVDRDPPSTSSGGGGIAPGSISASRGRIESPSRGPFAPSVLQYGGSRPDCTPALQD
# medaka Esr1 (mEsr1) [2] = biological target: T1, medaka Esr1 (mEsr1); test: Medaka Esr1 reporter gene assay, antagonist assay; assay type: cell-based, Japanese medaka (Oryzias latipes); details: E2 spiked at 1.0 nM (B); MAC = 1.0 × 10^−5 M
# medaka ARβ (mArβ) [3] = biological target: T2, medaka ARβ (mArβ) (Oryzias latipes, UniProt D1MV73); test: Medaka ARβ reporter gene assay, agonist assay; assay type: cell-based, Japanese medaka (Oryzias latipes); details: MAC = 1.0 × 10^−5 M
# T2 sequence (D1MV73 1-744): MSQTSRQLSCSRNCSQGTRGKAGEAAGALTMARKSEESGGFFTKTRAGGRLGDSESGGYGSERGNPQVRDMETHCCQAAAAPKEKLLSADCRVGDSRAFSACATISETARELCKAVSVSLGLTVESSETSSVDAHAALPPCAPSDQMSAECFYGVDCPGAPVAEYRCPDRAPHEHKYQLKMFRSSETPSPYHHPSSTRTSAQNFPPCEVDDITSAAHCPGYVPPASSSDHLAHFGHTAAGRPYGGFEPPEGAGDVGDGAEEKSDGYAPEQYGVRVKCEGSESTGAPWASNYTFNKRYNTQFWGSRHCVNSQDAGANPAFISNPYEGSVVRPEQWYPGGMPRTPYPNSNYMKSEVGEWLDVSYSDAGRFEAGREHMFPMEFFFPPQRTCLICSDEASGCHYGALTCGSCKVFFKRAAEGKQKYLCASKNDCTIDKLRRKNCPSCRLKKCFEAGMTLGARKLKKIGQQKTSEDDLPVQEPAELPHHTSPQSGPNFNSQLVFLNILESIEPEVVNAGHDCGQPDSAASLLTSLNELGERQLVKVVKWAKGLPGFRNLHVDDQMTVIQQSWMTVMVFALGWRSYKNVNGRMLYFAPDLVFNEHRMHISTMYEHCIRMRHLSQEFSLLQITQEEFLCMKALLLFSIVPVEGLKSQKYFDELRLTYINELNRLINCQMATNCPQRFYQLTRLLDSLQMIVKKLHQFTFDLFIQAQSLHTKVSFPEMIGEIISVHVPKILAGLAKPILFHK
# medaka ARβ (mArβ) [4] = biological target: T2, medaka ARβ (mArβ); test: Medaka ARβ reporter gene assay, antagonist assay; assay type: cell-based, Japanese medaka (Oryzias latipes); details: 11‐KT spiked at 50 nM (D); MAC = 1.0 × 10^−5 M
# [5] = system: Japanese medaka (Oryzias latipes); test: Fish Short‐Term Reproduction Assay; assay type: in vivo; details: for GSI Female / GSI Male / HSI Female / HSI Male / Length Female / Length Male / Weight Female / Weight Male: completion of exposure
# [6] = 18.8 μg/L measured, 21 d, sig. ↑ vs control
# [7] = 51.8 μg/L measured, 21 d, sig. ↑ vs control
# [8] = 51.8 μg/L measured, 21 d, sig. ↓ vs control
# [9] = 170 μg/L measured, 21 d, sig. ↑ vs control
# [10] = measured concentration 5.63 μg/L
# [11] = measured concentration 18.8 μg/L
# [12] = measured concentration 51.8 μg/L
# [13] = measured concentration 170 μg/L
substance,measurement,setting,value
4‐Nonylphenol (branched) [Chemical 4NP],In vitro positive: Esr,medaka Esr1 (mEsr1) [1]; mode of action in which EC50 or PC10 was obtained in RGA,Esr
same,EC50,"medaka Esr1 (mEsr1) [1]; read-out: Agonistic activity EC50, HEK293 cells",22 nM
same,Antagonistic activity,medaka Esr1 (mEsr1) [2],NE (MAC = 1.0 × 10^−5 M)^(B)
same,Agonistic activity,medaka ARβ (mArβ) [3],NE (MAC = 1.0 × 10^−5 M)
same,Antagonistic activity,medaka ARβ (mArβ) [4],NE (MAC = 1.0 × 10^−5 M)^(D)
same,Fertility rate,"[5]; 5.63 μg/L measured, 21 d",97 ± 2.2%
same,"Hepatic VTG, female","[5]; 5.63 μg/L measured, 21 d",866 ± 277 ng/mg‐liver
same,Mortality,"[5]; 5.63 μg/L measured, 21 d",0.0%
same,"Mortality, number of dead fish","[5]; 5.63 μg/L measured, 21 d",0
same,Number of fertilized eggs (per female per day),"[5]; 5.63 μg/L measured, 21 d",20 ± 1.2
same,Number of total eggs (per female per day),"[5]; 5.63 μg/L measured, 21 d",21 ± 0.9
same,SSC female (joint plates with papillary processes),"[5]; 5.63 μg/L measured, 21 d",0 ± 0
same,SSC male (joint plates with papillary processes),"[5]; 5.63 μg/L measured, 21 d",92 ± 15
same,"Hepatic VTG, male","[5]; 5.63 μg/L measured, 21 d, sig. ↑ vs control",32 ± 31 ng/mg‐liver
same,Fertility rate,"[5]; 18.8 μg/L measured, 21 d",94 ± 7.7%
same,Mortality,"[5]; 18.8 μg/L measured, 21 d",0.0%
same,"Mortality, number of dead fish","[5]; 18.8 μg/L measured, 21 d",0
same,Number of fertilized eggs (per female per day),"[5]; 18.8 μg/L measured, 21 d",17 ± 5.4
same,Number of total eggs (per female per day),"[5]; 18.8 μg/L measured, 21 d",18 ± 4.9
same,SSC female (joint plates with papillary processes),"[5]; 18.8 μg/L measured, 21 d",0 ± 0
same,SSC male (joint plates with papillary processes),"[5]; 18.8 μg/L measured, 21 d",79 ± 21
same,"Hepatic VTG, female",[5]; [6],"1,153 ± 300 ng/mg‐liver"
same,"Hepatic VTG, male",[5]; [6],375 ± 320 ng/mg‐liver
same,Mortality,"[5]; 51.8 μg/L measured, 21 d",0.0%
same,"Mortality, number of dead fish","[5]; 51.8 μg/L measured, 21 d",0
same,SSC female (joint plates with papillary processes),"[5]; 51.8 μg/L measured, 21 d",0 ± 0
same,SSC male (joint plates with papillary processes),"[5]; 51.8 μg/L measured, 21 d",97 ± 13
same,"Hepatic VTG, female",[5]; [7],"1,348 ± 258 ng/mg‐liver"
same,"Hepatic VTG, male",[5]; [7],"2,431 ± 1,455 ng/mg‐liver"
same,Fertility rate,[5]; [8],61 ± 10%
same,Number of total eggs (per female per day),[5]; [8],13 ± 3.0
same,Mortality,"[5]; 170 μg/L measured, 21 d",4.2%
same,"Mortality, number of dead fish","[5]; 170 μg/L measured, 21 d",1
same,SSC female (joint plates with papillary processes),"[5]; 170 μg/L measured, 21 d",0 ± 0
same,SSC male (joint plates with papillary processes),"[5]; 170 μg/L measured, 21 d",87 ± 12
same,"Hepatic VTG, female",[5]; [9],"1,212 ± 506 ng/mg‐liver"
same,"Hepatic VTG, male",[5]; [9],"5,009 ± 1830 ng/mg‐liver"
same,Fertility rate,"[5]; 170 μg/L measured, 21 d, sig. ↓ vs control",33 ± 9.7%
same,Change of hepatic VTG levels in females (in words),[5]; 21 d,significant increase
same,"Fecundity, number of total eggs (in words)",[5]; 21 d,statistically significant decrease
same,"LOEC, elevated hepatic VTG in males",[5]; 21 d,5.63 µg/L
same,LOECmVTG,[5]; LOEC on VTG induction in males,5.63 µg/L
same,LOECREPRO,[5]; LOEC on reproduction (fecundity and/or fertility),51.8 µg/L
same,LOECTOX,[5]; lowest observed effect concentration on mortality,ND (>170) μg/L
same,GSI Female,[5]; [10],7.8 ± 1.6%
same,GSI Male,[5]; [10],1.02 ± 0.07%
same,HSI Female,[5]; [10],3.4 ± 0.55%
same,HSI Male,[5]; [10],1.7 ± 0.10%
same,Length Female,[5]; [10],36.7 ± 1.3 mm
same,Length Male,[5]; [10],36.8 ± 1.3 mm
same,Weight Female,[5]; [10],535 ± 82 mg
same,Weight Male,[5]; [10],515 ± 45 mg
same,GSI Female,[5]; [11],8.9 ± 0.6%
same,GSI Male,[5]; [11],1.08 ± 0.06%
same,HSI Female,[5]; [11],4.1 ± 0.59%
same,HSI Male,[5]; [11],1.7 ± 0.28%
same,Length Female,[5]; [11],35.5 ± 1.2 mm
same,Length Male,[5]; [11],37.5 ± 0.6 mm
same,Weight Female,[5]; [11],500 ± 46 mg
same,Weight Male,[5]; [11],552 ± 34 mg
same,GSI Female,[5]; [12],7.7 ± 0.6%
same,GSI Male,[5]; [12],1.15 ± 0.20%
same,HSI Female,[5]; [12],4.2 ± 0.66%
same,HSI Male,[5]; [12],2.0 ± 0.22%
same,Length Female,[5]; [12],36.4 ± 0.8 mm
same,Length Male,[5]; [12],37.6 ± 1.2 mm
same,Weight Female,[5]; [12],537 ± 45 mg
same,Weight Male,[5]; [12],552 ± 69 mg
same,GSI Female,[5]; [13],7.9 ± 1.5%
same,GSI Male,[5]; [13],1.05 ± 0.15%
same,HSI Female,[5]; [13],3.9 ± 0.58%
same,HSI Male,[5]; [13],2.4 ± 0.10%
same,Length Female,[5]; [13],36.0 ± 1.6 mm
same,Length Male,[5]; [13],38.6 ± 1.5 mm
same,Weight Female,[5]; [13],540 ± 64 mg
same,Weight Male,[5]; [13],602 ± 64 mg
